Key:
MDA-MB-231 = assay: MTT cell viability assay on MDA-MB-231; format: cell-based, human; details: for reduction in cell viability: MDA-MB-231, 20 μM; for IC50: MDA-MB-231, MTT assay, 48 h
Experimental: (§1) Human cancer cell lines, including MDA-MB-231, MCF-7, COLO205 and SK-OV-3, used in this study were purchased from American Type Culture Collection (ATCC, Manassas, VA, USA). All cell cultures were maintained in a 5% CO2-containing incubator at 37 °C. Triple-negative breast cancer cell line MDA-MB-231 and estrogen receptor-positive breast cancer cells MCF-7 were cultured in Dulbecco’s Modified Eagle Medium/Nutrient Mixture F-12 medium (DMEM/F12, Thermo Fisher Scientific Inc., Waltham, MA, USA) supplemented with 1% HyClone Penicillin-Streptomycin 100X solution (Cytiva, Marlborough, MA, USA) and 10% (v/v) fetal bovine serum (Thermo Fisher Scientific Inc., Waltham, MA, USA). COLO205 colon cancer cells and SK-OV-3 ovarian cancer cells were cultured in Roswell Park Memorial Institute (RPMI) 1640 medium (Thermo Fisher Scientific Inc., Waltham, MA, USA) containing the same supplements as described above.
(§2) Cell viability was evaluated using MTT assay. […] A viable cell count was determined by adding MTT reagent (3-(4,5-Dimethyl-2-thiazolyl)-2,5-diphenyl-2H-tetrazolium bromide (MTT; SERVA, Heidelberg, Germany) at a concentration of 5 mg/mL in PBS followed by measurement of the absorbance at 570 nm for each well detected by μQuant™ universal microplate spectrophotometer (BioTek, Winowski, VT, USA). The assessment procedures were followed under the manufacturer’s instructions. The final results were represented as mean values in the same experimental group detected by a microplate reader.

MCF-7 = assay: MTT cell viability assay on MCF-7; format: cell-based, human; details: for reduction in cell viability (antiproliferative effect): MCF-7, 80 μM
Experimental: as §1, §2

COLO205 = assay: MTT cell viability assay on COLO205; format: cell-based, human; details: for reduction (proliferative inhibition): COLO205, 20 μM; for IC50: COLO205, MTT assay, 48 h
Experimental: as §1, §2

MDA-MB-231 cells [1] = assay: Cell cycle analysis (PI staining, flow cytometry); format: cell-based, human; details: 24 h; for DNA content in S phase: without exposure 14.75%; for DNA content in sub G1: without exposure 8.71%
Experimental: The pellet was collected and fixed in 99% ice-cold ethanol and then stored in a freezer at −20 °C for further processing of staining. To label DNA, those fixed cells were rapidly washed to remove the residual fixing agent, followed by staining with DNA intercalating agent propidium iodide solution (PI) for 30 min in the dark. The PI working solution contains 0.5% Triton X-100, 15 μg propidium iodide (PI; BioVision Inc., Milpitas, CA, USA) and 10 μg RNase A (Thermo Fisher Scientific Inc., Waltham, MA, USA) in 1 mL PBS. The measurement and acquisition of DNA content were conducted using FACSVerse^TM Flow Cytometer (BD, Franklin Lakes, NJ, USA). Cell cycle distribution in four phases (subG1, G1, S, G2/M) was gated and analyzed in Kaluza Analysis Software (Beckman Coulter Inc., Indianapolis, IN, USA).

MDA-MB-231 cells [2] = assay: Cell line-derived xenograft (CDX) model, tumor growth; format: in vivo; details: NSG mice
Experimental: (§3) The procedures for the establishment of breast cancer-bearing xenograft models were modified from a previous publication and approved by the Taipei Medical University (TMU) Institutional Animal Care and Use Committee (IACUC No. LAC-2020-0175). Overall, 4- to 6-week-old NOD.Cg-PrkdcscidIl2rgtm1Wjl/SzJ (NSG) female mice purchased from National Laboratory Animal Center (Taipei, Taiwan) were housed in specific pathogen-free rooms with ad libitum feeding and 12 h light–dark cycle. After a week of acclimatization, 2 × 10^6 MDA-MB-231 cells suspended in 1:1 ratio of phosphate-buffered saline plus Matrigel® Matrix (Cat. 356237; Corning Inc., New York, NY, USA) were subcutaneously injected on the right flank of each mouse. […] To monitor tumor growth in the models, tumor diameter was measured using an electronic caliper and values were applied on the equation: width^2 × length × 0.52 to estimate their tumor volume. All mice were sacrificed on day 28 after treatment. Plasma, tumors and major organs (heart, liver, kidney, spleen and lung) were collected for toxicity assessment and metastasis evaluation.

[3] = CDX model: body and organ weight, CBC and blood biochemistry; format: in vivo; details: NSG mice
Experimental: as §3, with “evaluation. Whole blood harvested from sacrificed animals was collected in EDTA-containing or heparin-containing tubes for CBC and biochemical analysis. For biochemical analysis, whole blood was centrifuged under 2000× g for 5 min to separate plasma from blood cells and then plasma was kept and stored in a −20 °C fridge until further analysis. Concentrations of albumin, total protein, aspartate aminotransferase (AST), alanine aminotransferase (ALT) and creatinine (CREA) in plasma, numbers of red blood cells (RBC), platelets (PLT), white blood cells (WBC) and hemoglobin (HGB) concentration in EDTA-anticoagulated whole blood were determined by medical laboratory scientists in Taipei Medical University Hospital (Taipei, Taiwan).” for “evaluation.”

[4] = 5 mg/kg i.p. weekly x4, day 28, PBS 1412.72 ± 120.85
[5] = 2.11 mg/kg i.p. weekly x4, day 28
[6] = 5 mg/kg i.p. weekly x4, day 28, reference interval 0.2–0.5
[7] = 5 mg/kg i.p. weekly x4, day 28, reference interval 4–10.9
[8] = 5 mg/kg i.p. weekly x4, day 28, reference interval 7.75–9.61
[9] = 5 mg/kg i.p. weekly x4, day 28, reference interval 13–39
[10] = 5 mg/kg i.p. weekly x4, day 28, reference interval 63–227
[11] = 5 mg/kg i.p. weekly x4, day 28, reference interval 853–1951
[12] = 5 mg/kg i.p. weekly x4, day of sacrifice (day 28)

| SMILES | reduction in cell viability (MDA-MB-231) [%] | IC50 (MDA-MB-231) [µM] | reduction in cell viability (antiproliferative effect) (MCF-7) [%] | IC50 (MCF-7; MCF-7, MTT assay, 48 h) [µM] | reduction (proliferative inhibition) (COLO205) [%] | IC50 (COLO205) [µM] | average tumor volume (MDA-MB-231 cells [2]; [4]) [mm^3] | Heart ([3]; 5 mg/kg i.p. weekly x4, day 28) [g] | Kidney ([3]; 5 mg/kg i.p. weekly x4, day 28) [g] | Liver ([3]; 5 mg/kg i.p. weekly x4, day 28) [g] | Lung ([3]; 5 mg/kg i.p. weekly x4, day 28) [g] | Spleen ([3]; 5 mg/kg i.p. weekly x4, day 28) [g] | CREA [3, 6] [mg/dL] | WBC [3, 7] | RBC [3, 8] | ALT [3, 9] [U/L] | AST [3, 10] [U/L] | PLT [3, 11] | Body weight [3, 12] [g] | further results |
| --- | --- | --- | --- | --- | --- | --- | --- | --- | --- | --- | --- | --- | --- | --- | --- | --- | --- | --- | --- | --- |
| N.N.[Cl][Pt][Cl] [CDDP, Cis-diamineplatinum(II) dichloride] | 10 | > 80 | 19 | > 80 | 23 | 70 | ~540.23 ± 133.20 | 0.13 ± 0.01 | 0.29 ± 0.02 | 0.98 ± 0.10 | 0.26 ± 0.13 | 0.13 ± 0.18 | 0.23 ± 0.05 | 6.33 ± 1.59 10^3/µL | 9.18 ± 0.46 10^6/µL | 29.00 ± 3.46 | 172.3 ± 44.28 | 927.80 ± 223.4 10^3/µL | 22.20 ± 2.12 | DNA content in S phase (MDA-MB-231 cells [1]; MDA-MB-231, 2.5 μM): 26.8%; DNA content in S phase (MDA-MB-231 cells [1]; MDA-MB-231, 5 μM): 32.27%; DNA content in S phase (MDA-MB-231 cells [1]; MDA-MB-231, 10 μM): 39.65%; average tumor volume (MDA-MB-231 cells [2]; 2.11 mg/kg i.p. weekly x4, day 28, PBS 1412.72 ± 120.85): around 821.66 ± 133.75 mm^3; Heart [3, 5]: 0.14 ± 0.04 g; Kidney [3, 5]: 0.31 ± 0.02 g; Liver [3, 5]: 1.04 ± 0.08 g; Lung [3, 5]: 0.23 ± 0.04 g; Spleen [3, 5]: 0.03 ± 0.00 g; CREA ([3]; 2.11 mg/kg i.p. weekly x4, day 28, reference interval 0.2–0.5): 0.20 ± 0.00 mg/dL; WBC ([3]; 2.11 mg/kg i.p. weekly x4, day 28, reference interval 4–10.9): 3.48 ± 0.13 ^§ 10^3/µL; RBC ([3]; 2.11 mg/kg i.p. weekly x4, day 28, reference interval 7.75–9.61): 9.25 ± 0.33 10^6/µL; ALT ([3]; 2.11 mg/kg i.p. weekly x4, day 28, reference interval 13–39): 34.25 ± 9.18 U/L; AST ([3]; 2.11 mg/kg i.p. weekly x4, day 28, reference interval 63–227): 120.3 ± 20.82 U/L; PLT ([3]; 2.11 mg/kg i.p. weekly x4, day 28, reference interval 853–1951): 867.3 ± 97.6 10^3/µL; Body weight ([3]; 2.11 mg/kg i.p. weekly x4, day of sacrifice (day 28)): 24.08 ± 2.89 g |
| FC(F)C(F)(F)COCc1ccnc(-c2cc(COCC(F)(F)C(F)F)ccn2)c1.[Cl][Pt][Cl] [TFBPC] | 88 | 3.86 | 28 | > 80 | 72 | 11.5 | ~413.03 ± 87.50 | 0.14 ± 0.04 | 0.31 ± 0.02 | 1.04 ± 0.08 | 0.23 ± 0.04 | 0.03 ± 0.00 | 0.20 ± 0.00 | 5.70 ± 1.54 10^3/µL | 9.85 ± 0.30 10^6/µL | 38.75 ± 7.09 | 190.0 ± 65.17 | 975 ± 205.8 10^3/µL | 23.62 ± 1.56 | IC50 Values (MCF-7; MCF-7, MTT assay, 48 h): resistant; cell viability of COLO205 cells (COLO205; MTT, 20 to 80 μM, 24 or 48 h, supplementary figure): effective in inhibiting the cell viability; DNA content in sub G1 (MDA-MB-231 cells [1]; MDA-MB-231, 2.5 μM): 14.8%; DNA content in sub G1 (MDA-MB-231 cells [1]; MDA-MB-231, 5 μM): 23.14%; DNA content in sub G1 (MDA-MB-231 cells [1]; MDA-MB-231, 10 μM): 27.15%; tumor weight (MDA-MB-231 cells [2]; 5 mg/kg i.p. weekly x4, day 28): ~ 0.3 g; Albumin ([3]; 5 mg/kg i.p. weekly x4, day 28, reference interval 3.0–3.9): 3.20 ± 0.29 g/dL; Total protein ([3]; 5 mg/kg i.p. weekly x4, day 28, reference interval 4.5–5.5): 4.98 ± 0.17 g/dL; HGB ([3]; 5 mg/kg i.p. weekly x4, day 28, reference interval 12.20–13.90): 14.9 ± 0.53 g/dL |

Reference: article PMC9031226, “Preclinical Therapeutic Assessment of a New Chemotherapeutics [Dichloro(4,4’-Bis(2,2,3,3-Tetrafluoropropoxy) Methyl)-2,2’-Bipryridine) Platinum] in an Orthotopic Patient-Derived Xenograft Model of Triple-Negative Breast Cancers” (Pharmaceutics, 2022)
